Experimental data from patent US10688200B2, “Urea-based prostate specific membrane antigen (PSMA) inhibitors for imaging and therapy” (Five Eleven Pharma Inc., priority 2015, dated 2020).

Assays:
PSMA [1] = assay: In vitro autoradiography of LNCaP tumor and mouse kidney sections; assay type: binding; details: incubation with 2-PMPA
Protocol: LNCaP tumor and mouse kidneys were cut at 20 μm on a cryostat, thaw-mounted onto slides. Slides are incubated with radiotracers (3 μCi/ml) in PBS for 30 min and washed with PBS twice for 3 min each. After drying, the slides put into a plate for exposure for 30 min. Images were acquired with Typhoon FLA 7000 (GE Healthcare).
To validate the PSMA binding, in vitro autoradiography studies using LNCaP tumor and mouse kidney sections were carried out.
FIGS. 2A-2K show in vitro autoradiography of LNCaP tumor (left side) and mouse kidney sections (right side). […] These new PSMA target compounds, display high uptake in the sections. [^68Ga]1a (PSMA-11) was used as a control.

PSMA [2] = molecular target: T1, PSMA (Homo sapiens, UniProt Q04609); assay: In vitro binding signals of 68Ga labeled ligands in LNCaP tumor homogenates; details: Ga-68 radiolabeled ligands; for Nonspecific binding (NSB): with 1a (PSMA11) 10 μM
T1 construct: 100 μL of freshly harvested PSMA cells; endogenous in cells; host or cells: 'PSMA cells' in the method

[3] = system: PSMA expressing LNCaP cells; assay: Cell uptake comparisons in LNCaP cells (FIG. 1); assay type: cell-based, human; details: 1 hr at 37° C.
Protocol: Cell uptake studies were performed using PSMA expressing LNCaP cells. Cells were grown in 6 well plates for 2 days. After incubation with ^68Ga-labeled ligands for 1 hr at 37° C., media were removed. After washing twice with 3 mL PBS buffer, cells were lysed with 0.1 N NaOH. Lysed cells were wiped with filter paper and radioactivity in filter paper was measured with a gamma counter.
The LNCaP cells over express PSMA receptor binding sites, the level of binding, % uptake/well, was an indicator of PSMA binding, the higher the better. [^68Ga]1a, a known PSMA imaging agent (PSMA-11), was used as a control.

[4] = Biodistribution of radiotracers in normal mice; assay type: in vivo, mouse; details: normal male mice
Outline: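 Male CD-1 mice received 35 μCi [^68Ga] radiotracer (0.2 nmole ligand) by tail vein. Four mice per time point sacrificed at 2, 30, 60 and 120 min p.i.; organs and blood weighed and gamma counted. %ID/g calculated against a standard dilution of the dose, decay-corrected.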

T1 sequence (Q04609 whole entry): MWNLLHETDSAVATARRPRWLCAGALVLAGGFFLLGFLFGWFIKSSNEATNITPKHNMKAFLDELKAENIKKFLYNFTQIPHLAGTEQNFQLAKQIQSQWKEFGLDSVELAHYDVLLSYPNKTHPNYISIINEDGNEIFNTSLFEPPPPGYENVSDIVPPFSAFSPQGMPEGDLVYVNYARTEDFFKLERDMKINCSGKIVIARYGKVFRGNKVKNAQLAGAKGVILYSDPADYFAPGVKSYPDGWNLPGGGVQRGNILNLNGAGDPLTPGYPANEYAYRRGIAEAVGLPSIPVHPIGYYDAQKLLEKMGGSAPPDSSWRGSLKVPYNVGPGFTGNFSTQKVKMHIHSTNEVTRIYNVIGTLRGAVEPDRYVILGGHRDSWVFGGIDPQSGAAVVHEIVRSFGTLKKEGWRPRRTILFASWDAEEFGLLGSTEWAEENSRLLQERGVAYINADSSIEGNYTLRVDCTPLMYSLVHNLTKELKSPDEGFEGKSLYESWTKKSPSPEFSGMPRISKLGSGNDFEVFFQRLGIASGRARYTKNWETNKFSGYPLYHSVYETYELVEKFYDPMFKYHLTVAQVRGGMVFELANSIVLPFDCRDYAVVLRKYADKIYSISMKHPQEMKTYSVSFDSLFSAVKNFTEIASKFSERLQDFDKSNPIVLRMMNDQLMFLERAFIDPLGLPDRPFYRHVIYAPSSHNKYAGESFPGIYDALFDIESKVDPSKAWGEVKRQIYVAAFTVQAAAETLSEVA

## 2-(3-mercaptopropyl)pentane-dioic acid [Compound 2-PMPA]
PSMA [1]
  Blocking of radiotracer binding in autoradiography, in words: blocked radiotracers' binding to tumor and kidney

## O=C(O)CCc1ccc2c(n1)C[N+]13CC[N+]45CC(=O)[O][68Ga-3]14([O]C(=O)C3)([O]2)[O]c1ccc(CCC(=O)NCCCCCC(=O)NCCCC[C@H](NC(=O)N[C@@H](CCC(=O)O)C(=O)O)C(=O)O)nc1C5 (some centres unmarked) [[^68Ga]2]
PSMA [2]
  Specific binding (SB) SB = TB − NSB: lower specific binding
  Nonspecific binding (NSB): high nonspecific binding
[3]
  Cell uptake (% uptake/well), in words: low cell uptakes
[4]; 2 min
  Biodistribution: Blood: 8.92 ± 0.75 % dose/g
  Biodistribution: Bone: 2.18 ± 0.08 % dose/g
  Biodistribution: Brain: 0.24 ± 0.02 % dose/g
  Biodistribution: Heart: 3.40 ± 0.45 % dose/g
  Biodistribution: Kidney: 56.4 ± 8.05 % dose/g
  Biodistribution: Liver: 2.01 ± 0.08 % dose/g
  Biodistribution: Lung: 5.18 ± 0.52 % dose/g
  Biodistribution: Muscle: 2.00 ± 0.25 % dose/g
  Biodistribution: Pancreas: 1.85 ± 0.17 % dose/g
  Biodistribution: Skin: 3.07 ± 0.05 % dose/g
  Biodistribution: Spleen: 3.57 ± 0.20 % dose/g
[4]; 30 min
  Biodistribution: Blood: 1.18 ± 0.15 % dose/g
  Biodistribution: Bone: 0.48 ± 0.02 % dose/g
  Biodistribution: Brain: 0.05 ± 0.00 % dose/g
  Biodistribution: Heart: 0.51 ± 0.03 % dose/g
  Biodistribution: Kidney: 108 ± 8.66 % dose/g
  Biodistribution: Liver: 0.33 ± 0.01 % dose/g
  Biodistribution: Lung: 1.07 ± 0.12 % dose/g
  Biodistribution: Muscle: 0.46 ± 0.03 % dose/g
  Biodistribution: Pancreas: 0.76 ± 0.12 % dose/g
  Biodistribution: Skin: 0.88 ± 0.08 % dose/g
  Biodistribution: Spleen: 1.33 ± 0.08 % dose/g
[4]; 60 min
  Biodistribution: Blood: 0.89 ± 0.10 % dose/g
  Biodistribution: Bone: 0.43 ± 0.01 % dose/g
  Biodistribution: Brain: 0.03 ± 0.00 % dose/g
  Biodistribution: Heart: 0.33 ± 0.02 % dose/g
  Biodistribution: Kidney: 67.8 ± 15.57 % dose/g
  Biodistribution: Liver: 0.25 ± 0.06 % dose/g
  Biodistribution: Lung: 0.72 ± 0.16 % dose/g
  Biodistribution: Muscle: 0.24 ± 0.01 % dose/g
  Biodistribution: Pancreas: 0.44 ± 0.08 % dose/g
  Biodistribution: Skin: 0.46 ± 0.10 % dose/g
  Biodistribution: Spleen: 0.84 ± 0.24 % dose/g
[4]; 120 min
  Biodistribution: Blood: 0.78 ± 0.04 % dose/g
  Biodistribution: Bone: 0.60 ± 0.03 % dose/g
  Biodistribution: Brain: 0.03 ± 0.01 % dose/g
  Biodistribution: Heart: 0.28 ± 0.02 % dose/g
  Biodistribution: Kidney: 26.9 ± 6.13 % dose/g
  Biodistribution: Liver: 0.22 ± 0.01 % dose/g
  Biodistribution: Lung: 0.45 ± 0.01 % dose/g
  Biodistribution: Muscle: 0.18 ± 0.01 % dose/g
  Biodistribution: Pancreas: 0.30 ± 0.04 % dose/g
  Biodistribution: Skin: 0.29 ± 0.03 % dose/g
  Biodistribution: Spleen: 0.36 ± 0.04 % dose/g

## O=C(O)CC[C@H](NC(=O)N[C@@H](CCCCNC(=O)CCCCCNC(=O)CCc1ccc2c(n1)C[N+]13CC[N+]45CC(=O)[O][68Ga-3]14([O]C(=O)C3)([O]2)[O]c1ccc(CCC(=O)NCCCCCC(=O)NCCCC[C@H](NC(=O)N[C@@H](CCC(=O)O)C(=O)O)C(=O)O)nc1C5)C(=O)O)C(=O)O (some centres unmarked) [[^68Ga]3]
PSMA [2]
  Specific binding (SB) SB = TB − NSB: lower specific binding
  Nonspecific binding (NSB): high nonspecific binding
[3]
  Cell uptake (% uptake/well), in words: low cell uptakes
[4]; 2 min
  Biodistribution: Blood: 8.94 ± 1.57 % dose/g
  Biodistribution: Bone: 3.53 ± 0.96 % dose/g
  Biodistribution: Brain: 0.33 ± 0.06 % dose/g
  Biodistribution: Heart: 4.34 ± 1.15 % dose/g
  Biodistribution: Kidney: 56.2 ± 6.53 % dose/g
  Biodistribution: Liver: 3.42 ± 0.11 % dose/g
  Biodistribution: Lung: 7.49 ± 2.71 % dose/g
  Biodistribution: Muscle: 2.02 ± 0.74 % dose/g
  Biodistribution: Pancreas: 2.89 ± 0.61 % dose/g
  Biodistribution: Skin: 2.63 ± 0.48 % dose/g
  Biodistribution: Spleen: 5.14 ± 1.49 % dose/g
[4]; 30 min
  Biodistribution: Blood: 3.19 ± 0.72 % dose/g
  Biodistribution: Bone: 1.70 ± 0.20 % dose/g
  Biodistribution: Brain: 0.09 ± 0.01 % dose/g
  Biodistribution: Heart: 0.93 ± 0.22 % dose/g
  Biodistribution: Kidney: 94.4 ± 13.7 % dose/g
  Biodistribution: Liver: 1.71 ± 0.05 % dose/g
  Biodistribution: Lung: 1.38 ± 0.17 % dose/g
  Biodistribution: Muscle: 1.53 ± 0.68 % dose/g
  Biodistribution: Pancreas: 1.36 ± 0.32 % dose/g
  Biodistribution: Skin: 1.48 ± 0.34 % dose/g
  Biodistribution: Spleen: 4.35 ± 0.37 % dose/g
[4]; 60 min
  Biodistribution: Blood: 1.52 ± 0.44 % dose/g
  Biodistribution: Bone: 2.34 ± 1.08 % dose/g
  Biodistribution: Brain: 0.06 ± 0.04 % dose/g
  Biodistribution: Heart: 0.82 ± 0.22 % dose/g
  Biodistribution: Kidney: 61.3 ± 5.97 % dose/g
  Biodistribution: Liver: 1.81 ± 0.14 % dose/g
  Biodistribution: Lung: 1.29 ± 0.31 % dose/g
  Biodistribution: Muscle: 1.01 ± 0.29 % dose/g
  Biodistribution: Pancreas: 1.34 ± 0.45 % dose/g
  Biodistribution: Skin: 2.35 ± 0.34 % dose/g
  Biodistribution: Spleen: 1.75 ± 0.17 % dose/g
[4]; 120 min
  Biodistribution: Blood: 1.00 ± 0.30 % dose/g
  Biodistribution: Bone: 3.56 ± 1.08 % dose/g
  Biodistribution: Brain: 0.05 ± 0.02 % dose/g
  Biodistribution: Heart: 0.84 ± 0.20 % dose/g
  Biodistribution: Kidney: 30.3 ± 8.87 % dose/g
  Biodistribution: Liver: 2.00 ± 0.20 % dose/g
  Biodistribution: Lung: 0.97 ± 0.12 % dose/g
  Biodistribution: Muscle: 1.13 ± 0.50 % dose/g
  Biodistribution: Pancreas: 1.21 ± 0.19 % dose/g
  Biodistribution: Skin: 1.22 ± 0.20 % dose/g
  Biodistribution: Spleen: 1.71 ± 0.56 % dose/g
